The values that follow come from ChEMBL document CHEMBL5465560, “Selectivity Literature for EUbOPEN Chemogenomic Library” (2024).

Assay [1] has as its target Serine/threonine-protein kinase MARK1 (Homo sapiens) (UniProt Q9P0L2). As to the kind of experiment: Selectivity interaction (KinomeScan (DiscoverX)) EUB0001619a MARK1. Conditions: at 1 µM.
Assay [2] has as its target Mitogen-activated protein kinase kinase kinase kinase 1 (Homo sapiens) (UniProt Q92918). The assay can be described thus: Selectivity interaction (ActivX KiNativ screen (kinase selectivity in THP-1 cell lysates)) EUB0000639a MAP4K1. Type of assay: subcellular. Particulars: lysate, at 5 µM.
Assay [3] has as its target T1, Serine/threonine-protein kinase STK11 (Homo sapiens) (UniProt Q15831).
T1 sequence (whole entry): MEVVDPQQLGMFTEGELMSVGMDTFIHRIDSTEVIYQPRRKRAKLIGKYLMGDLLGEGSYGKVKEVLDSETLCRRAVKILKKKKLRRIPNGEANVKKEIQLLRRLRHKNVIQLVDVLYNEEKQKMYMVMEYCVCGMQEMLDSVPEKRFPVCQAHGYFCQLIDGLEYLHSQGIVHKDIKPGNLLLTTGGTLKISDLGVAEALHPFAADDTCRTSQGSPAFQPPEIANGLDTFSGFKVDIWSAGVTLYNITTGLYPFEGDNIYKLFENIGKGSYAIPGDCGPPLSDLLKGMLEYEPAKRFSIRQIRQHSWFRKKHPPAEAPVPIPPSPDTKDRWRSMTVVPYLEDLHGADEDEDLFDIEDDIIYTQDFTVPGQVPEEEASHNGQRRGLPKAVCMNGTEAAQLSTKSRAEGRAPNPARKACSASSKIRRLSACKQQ
As to the kind of experiment: Selectivity interaction (Kinase panel (literature)) EUB0001199aCl STK11. Conditions: at 1 µM.

Assay [4] has as its target T2, Tyrosine-protein kinase Tec (Homo sapiens) (UniProt P42680).
T2 sequence (whole entry): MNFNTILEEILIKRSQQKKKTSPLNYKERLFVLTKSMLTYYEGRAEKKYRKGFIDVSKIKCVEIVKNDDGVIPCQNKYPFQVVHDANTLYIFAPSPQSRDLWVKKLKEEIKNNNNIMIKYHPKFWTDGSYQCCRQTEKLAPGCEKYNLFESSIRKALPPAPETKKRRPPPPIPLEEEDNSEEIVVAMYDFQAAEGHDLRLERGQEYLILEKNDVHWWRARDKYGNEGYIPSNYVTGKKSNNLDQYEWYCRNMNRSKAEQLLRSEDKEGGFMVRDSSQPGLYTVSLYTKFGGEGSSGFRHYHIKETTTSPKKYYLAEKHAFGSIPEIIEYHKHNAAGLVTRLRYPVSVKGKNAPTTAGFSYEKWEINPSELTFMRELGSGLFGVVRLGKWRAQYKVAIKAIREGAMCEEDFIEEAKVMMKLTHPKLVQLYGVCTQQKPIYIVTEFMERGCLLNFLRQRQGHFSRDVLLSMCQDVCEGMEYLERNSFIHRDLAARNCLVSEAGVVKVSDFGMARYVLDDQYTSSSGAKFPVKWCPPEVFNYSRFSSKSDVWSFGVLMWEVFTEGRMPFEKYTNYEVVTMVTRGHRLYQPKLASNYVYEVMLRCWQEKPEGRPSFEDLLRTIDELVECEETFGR
As to the kind of experiment: Selectivity interaction (KinomeScan (DiscoverX)) EUB0000092b TEC. Particulars: at 10 µM.

Assay [5] deals with Dual specificity testis-specific protein kinase 1 (Homo sapiens) (UniProt Q15569). The assay can be described thus: Selectivity interaction (KinomeScan (DiscoverX)) EUB0001079a TESK1. Particulars: at 1 µM.
Assay [6] deals with T3, Ephrin type-A receptor 1 (Homo sapiens) (UniProt P21709).
T3 sequence (whole entry): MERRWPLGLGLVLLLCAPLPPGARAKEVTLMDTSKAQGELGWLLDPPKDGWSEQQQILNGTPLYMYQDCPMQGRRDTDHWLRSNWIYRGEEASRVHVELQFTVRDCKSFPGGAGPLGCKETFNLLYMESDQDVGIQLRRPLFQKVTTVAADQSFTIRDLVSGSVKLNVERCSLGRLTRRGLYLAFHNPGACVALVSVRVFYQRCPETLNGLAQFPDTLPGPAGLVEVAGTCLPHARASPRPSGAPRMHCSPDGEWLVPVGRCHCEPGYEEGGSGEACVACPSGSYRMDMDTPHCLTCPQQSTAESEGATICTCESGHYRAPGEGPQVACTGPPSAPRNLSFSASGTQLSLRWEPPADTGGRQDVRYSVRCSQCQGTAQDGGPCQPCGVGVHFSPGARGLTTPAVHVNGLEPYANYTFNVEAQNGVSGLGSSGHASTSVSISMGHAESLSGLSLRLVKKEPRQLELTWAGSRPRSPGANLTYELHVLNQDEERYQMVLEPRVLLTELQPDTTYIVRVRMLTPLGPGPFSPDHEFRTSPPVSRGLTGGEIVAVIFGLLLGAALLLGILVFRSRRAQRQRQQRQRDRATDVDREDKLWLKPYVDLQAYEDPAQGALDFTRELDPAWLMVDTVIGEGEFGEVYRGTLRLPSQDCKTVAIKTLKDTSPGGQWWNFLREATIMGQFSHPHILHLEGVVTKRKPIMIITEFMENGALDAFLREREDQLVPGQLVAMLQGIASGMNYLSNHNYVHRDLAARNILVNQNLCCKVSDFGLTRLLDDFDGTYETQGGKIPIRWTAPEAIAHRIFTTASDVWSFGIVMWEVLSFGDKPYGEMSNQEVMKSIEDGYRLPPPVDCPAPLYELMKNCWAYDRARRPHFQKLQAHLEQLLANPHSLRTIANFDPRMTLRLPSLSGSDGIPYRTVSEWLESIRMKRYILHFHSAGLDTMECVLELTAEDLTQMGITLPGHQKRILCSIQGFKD
As to the kind of experiment: Selectivity interaction (KinomeScan (DiscoverX)) EUB0000229b EPHA1. Particulars: at 10 µM.

Mitogen-activated protein kinase kinase kinase kinase 1 (Homo sapiens), sequence (Q92918 whole entry, looked up): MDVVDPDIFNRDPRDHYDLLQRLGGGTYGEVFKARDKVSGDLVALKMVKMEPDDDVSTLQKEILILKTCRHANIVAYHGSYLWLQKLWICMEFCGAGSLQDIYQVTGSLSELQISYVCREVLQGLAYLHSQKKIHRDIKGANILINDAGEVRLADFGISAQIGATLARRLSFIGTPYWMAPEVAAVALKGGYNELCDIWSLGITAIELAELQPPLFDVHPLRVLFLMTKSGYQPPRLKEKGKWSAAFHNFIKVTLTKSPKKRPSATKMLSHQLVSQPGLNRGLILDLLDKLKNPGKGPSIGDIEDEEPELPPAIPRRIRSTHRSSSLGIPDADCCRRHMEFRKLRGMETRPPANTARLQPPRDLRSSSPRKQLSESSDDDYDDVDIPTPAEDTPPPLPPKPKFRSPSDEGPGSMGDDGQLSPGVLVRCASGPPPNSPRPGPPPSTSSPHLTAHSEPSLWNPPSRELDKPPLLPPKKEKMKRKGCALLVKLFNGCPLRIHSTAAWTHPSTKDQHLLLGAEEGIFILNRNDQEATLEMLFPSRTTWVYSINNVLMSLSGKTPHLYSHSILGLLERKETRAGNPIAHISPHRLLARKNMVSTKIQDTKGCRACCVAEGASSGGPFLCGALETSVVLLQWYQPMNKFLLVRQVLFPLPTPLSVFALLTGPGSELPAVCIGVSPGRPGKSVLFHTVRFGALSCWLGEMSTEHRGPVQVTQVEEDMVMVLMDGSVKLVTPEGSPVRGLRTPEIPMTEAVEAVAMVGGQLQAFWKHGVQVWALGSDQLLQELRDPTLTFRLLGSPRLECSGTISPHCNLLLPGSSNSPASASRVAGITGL
Dual specificity testis-specific protein kinase 1 (Homo sapiens), sequence (Q15569 whole entry, looked up): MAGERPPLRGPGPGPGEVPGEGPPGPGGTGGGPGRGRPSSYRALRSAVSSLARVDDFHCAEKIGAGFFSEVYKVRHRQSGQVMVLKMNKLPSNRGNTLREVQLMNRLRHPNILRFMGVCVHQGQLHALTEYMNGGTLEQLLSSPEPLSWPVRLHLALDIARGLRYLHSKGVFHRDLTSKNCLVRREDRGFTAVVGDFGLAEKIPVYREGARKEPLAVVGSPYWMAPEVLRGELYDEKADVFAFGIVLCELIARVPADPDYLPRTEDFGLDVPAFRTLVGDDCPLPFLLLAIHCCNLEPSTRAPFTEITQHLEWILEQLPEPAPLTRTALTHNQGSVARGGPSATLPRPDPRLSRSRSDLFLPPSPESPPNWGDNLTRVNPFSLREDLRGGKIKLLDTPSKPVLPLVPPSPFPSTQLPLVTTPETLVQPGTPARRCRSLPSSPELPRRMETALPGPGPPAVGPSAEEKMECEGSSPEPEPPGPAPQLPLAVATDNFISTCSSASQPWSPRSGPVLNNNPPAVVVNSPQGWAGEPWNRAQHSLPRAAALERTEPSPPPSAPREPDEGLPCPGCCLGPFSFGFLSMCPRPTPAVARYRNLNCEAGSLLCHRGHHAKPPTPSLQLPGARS
Serine/threonine-protein kinase MARK1 (Homo sapiens), sequence (Q9P0L2 whole entry, looked up): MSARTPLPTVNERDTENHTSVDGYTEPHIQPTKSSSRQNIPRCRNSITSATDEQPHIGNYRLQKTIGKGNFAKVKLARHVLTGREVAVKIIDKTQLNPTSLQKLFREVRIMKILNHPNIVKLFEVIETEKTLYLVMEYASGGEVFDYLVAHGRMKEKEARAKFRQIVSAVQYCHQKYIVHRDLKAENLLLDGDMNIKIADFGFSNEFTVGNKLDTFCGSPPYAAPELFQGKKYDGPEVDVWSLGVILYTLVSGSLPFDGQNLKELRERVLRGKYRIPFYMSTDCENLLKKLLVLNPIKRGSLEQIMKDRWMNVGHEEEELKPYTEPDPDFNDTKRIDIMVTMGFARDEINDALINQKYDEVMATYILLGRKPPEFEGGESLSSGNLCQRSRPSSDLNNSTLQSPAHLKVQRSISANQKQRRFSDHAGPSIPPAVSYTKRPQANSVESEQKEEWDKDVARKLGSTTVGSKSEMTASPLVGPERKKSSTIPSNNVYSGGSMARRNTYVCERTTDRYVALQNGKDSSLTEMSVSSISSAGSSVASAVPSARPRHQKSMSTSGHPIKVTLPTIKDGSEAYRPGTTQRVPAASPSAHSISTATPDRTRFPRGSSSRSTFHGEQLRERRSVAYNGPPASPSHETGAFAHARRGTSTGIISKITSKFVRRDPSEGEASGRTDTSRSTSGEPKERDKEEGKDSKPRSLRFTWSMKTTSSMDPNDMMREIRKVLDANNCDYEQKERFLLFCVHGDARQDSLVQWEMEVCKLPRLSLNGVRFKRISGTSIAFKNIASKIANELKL

The molecule `N#Cc1cccc(-c2c[nH]c3ncnc(N4CCOCC4)c23)c1` came in with a % of control in assay [1] of 91%.
Take `CC[C@@H]1[C@H](F)C(=O)N[C@@H]1COc1nccc2cc(C(N)=O)c(OC)cc12` [ZIMLOVISERTIB]: the % of inhibition in assay [2] was -4.3%.
`CN1Cc2nccc(-c3cn(C)nc3-c3ccc(F)cc3)c2C1=O`: in assay [3], the % of inhibition was found to be 3%.
In assay [4], `CCC(=O)N1CCN(c2ccc(-n3c(=O)ccc4cnc5ccc(-c6cnc7ccccc7c6)cc5c43)cc2C(F)(F)F)CC1` showed a % of control of 99%.
Turning to `Nc1cnc(N2CCc3cc(S(=O)(=O)Nc4c(F)cc(Cl)cc4F)cc(N4CCCC4=O)c32)nc1` [TP-020n], the % of control in assay [5] was 100%.
In assay [6], `COc1cc(N(C)c2ccnc3ccc(C(F)(F)F)cc23)cc(OC)c1OC` showed a % binding of 90%.
